ChEMBL document CHEMBL3886411, “Heterocyclic derivative and pharmaceutical composition comprising the same” (2015)

Each molecule was assayed against T1, P2X purinoceptor 3 (Homo sapiens, UniProt P56373) (assay: Inhibition Assay: Stably expressing cell line (C6BU-1 cell transfected with human P2X3 receptor gene (GenBank accession number Y07683) was used. The cells were seeded in a 96-well microtiter plate at a concentration of 8000 cells/well and cultured in the medium (8.3% fetal bovine serum, 8.3% horse serum, 1% antibiotic and antifungal in DMEM) for one day at 37° C. under 5% carbon dioxide atmosphere. The medium was replaced with 4 μM Fluo-3-AM solution (20 mM HEPES, 137 mM NaCl, 2.7 mM KCl, 0.9 in M MgCl2, 5.0 mM CaCl2, 5.6 D-glucose, 2.5 mM probenecid, 1.0% BSA, and 0.08% Pluronic F-127, pH 7.5) and incubated at 37° C. under 5% dioxide carbon atmosphere for one hour. The plate was washed with washing buffer (20 mM HEPES, 137 mM NaCl, 2.7 mM KCl, 0.9 mM MgCl2, 5.0 mM CaCl2, 5.6 mM D-glucose, 2.5 mM probenecid, pH 7.5), and each well was added with 40 μL of this buffer. The plate was placed in High-Throughput Screening System FDSS 3000 (Hamamatsu Photonics K.K.). Measurement of fluorescence inte).
T1 sequence (P56373 whole entry): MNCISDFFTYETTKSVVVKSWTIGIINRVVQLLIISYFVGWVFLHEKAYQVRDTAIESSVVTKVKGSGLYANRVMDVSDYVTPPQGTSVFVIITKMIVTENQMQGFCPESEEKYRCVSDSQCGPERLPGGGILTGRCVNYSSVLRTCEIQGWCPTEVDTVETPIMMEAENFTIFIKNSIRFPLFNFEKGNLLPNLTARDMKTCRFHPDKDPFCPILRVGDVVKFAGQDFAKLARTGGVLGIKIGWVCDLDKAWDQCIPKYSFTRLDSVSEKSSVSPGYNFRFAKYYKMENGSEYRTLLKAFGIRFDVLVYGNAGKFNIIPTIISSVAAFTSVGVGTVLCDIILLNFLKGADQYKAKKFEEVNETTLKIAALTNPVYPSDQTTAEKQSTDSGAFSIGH

**Q.** For `CCOC(=O)c1cn(Cc2ccc(Cl)cc2)c(Nc2ccc(OC(C)C)c(F)c2)nc1=O`, which IC50 is on record?
**A.** The IC50 was 108 nM.

**Q.** For `CCOC(=O)c1cnc(Nc2ccc(OC(C)C)c(F)c2)n(Cc2ccc(Cl)cc2)c1=O`, which IC50 is on record?
**A.** The IC50 was 71 nM.

**Q.** `CCOC(=O)Nc1cnc(Nc2ccc(OC(C)C)c(F)c2)n(Cc2ccc(Cl)cc2)c1=O` was tested. Which IC50 did it give?
**A.** The IC50 was 33 nM.
